Experimental findings from US20150336919A1, “Sesquiterpene lactone-based pharmaceutical composition for treating gastrointestinal diseases” (CHO DANG PHARM. CO., LTD., priority 2012, published 2015) are described below.

In data set [1] the test system is Chinese hamster lung (CHL) cell. The experiment in a line: Chromosomal aberration test using Chinese hamster lung (CHL) cell. In kind it is cell-based. To be noted: for Chromosomal aberration test result: dose not given. The source says:
For measuring the induction of chromosomal aberration, the chromosomal aberration test has been carried out using Chinese hamster lung (CHL) cell. 2 kinds of methods have been adopted, such as, metabolic activation method (+S9) using metabolic activation system and direct method (−S9) without metabolic activation system.
For determining the test material reacting concentration, the cell growth inhibition test has been carried out. The test material has been dissolved and diluted in dimethyl sulfoxide (DMSO). Regardless of metabolic activation system, 12 concentration steps (2.43, 4.87, 9.75, 19.5, 39.1, 78.1, 156.3, 312.5, 625, 1250, 2500, 5000 μg/ml) of test material have been prepared. The cells have been cultured for 24 hours as the same way of main test. […] The medium has been further cultured for 18 hours.
Based upon the data of cell growth inhibition test, maximum concentration has been determined when the cell growth has been inhibited up to 50% as the relative cell numbers.
Regardless of metabolic activation system, the test materials have been prepared after 24 hours from the initiation of test. Then, the number of chromosomal aberration has been counted.

For data set [2], the system named is HCl-Ethanol inducing gastritis model. The data set is described as follows: HCl-Ethanol inducing gastritis model. Format: in vivo, white rats. How it is done: After white rats have been fasted for 24 hours, CD-101, CD-102 and CD-103 compound have been orally administered according to method disclosed in Mizui et al., Jap. J. Pharmacol. 33: pp. 939-945 (1983). After 1 hour, 1.5 ml of 60% ethanol including 150 mM HCl has been orally administered to each animal. 1 hour later, animals have been sacrificed by cervical dislocation. After removing the stomach, the stomach has been fixed by injection of 13 ml of 2% formalin for 1 hour. After fixed stomach has been spread out, the lesion area has been measured using the photo by digital camera. Computer program Image J 1.38 (NIH, Bethesda, Md.) has been applied for measuring gastric lesion area (mm^2) The lesion inhibition rate has been calculated according to following equation. Further, 50% effective dose (ED50) has been also calculated using regression analysis.
Lesion inhibition rate(%)={gastric lesion area of control group(mm^2)−gastric lesion area of drug administration group(mm^2)}/gastric lesion area of control group(mm^2)×100

Data set [3] has as its system indomethacin inducing stomach ulcer model. The data set is described as follows: Indomethacin inducing stomach ulcer model. Format: in vivo, white rats. Conditions: oral. The method, then: After white rats have been fasted for 24 hours, CD-101, CD-102 and CD-103 compound have been orally administered according to method disclosed in Yamasaki et al., Jap. J. Pharmacol. 49: pp. 441-448 (1989). After 1 hour, indomethacin (50 mg/kg) has been orally administered to each animal After fasting for 5 hours, animals have been sacrificed by cervical dislocation. After removing the stomach, the stomach has been fixed by injection of 13 ml of 2% formalin for 1 hour. After fixed stomach has been spread out, the lesion area has been measured using the photo by digital camera. Computer program Image J 1.38 (NIH, Bethesda, Md.) has been applied for measuring gastric lesion area (mm^2) The lesion inhibition rate and 50% effective dose (ED50) have been calculated as the same manner of HCl-EtOH model.

Setting [4] is: +S9 (metabolic activation method).

Turning to `C=C1C(=O)O[C@@H]2[C@@H](O)[C@]3(C)CC[C@H]3[C@](C)(OC)CC[C@@H]12` [CD-101], the “Chromosomal aberration test results” value in data set [1] (+S9, dose 20 μg/kg) was “negative”; in data set [1] (+S9, dose 40 μg/kg) it was “negative”; in data set [1] (−S9, dose 5 μg/kg), “negative”. Further, the “Induction of chromosomal aberration” value in data set [1] (CHL cell) is “do not induce the chromosomal aberration”.

For orientation: inhibition means the change of the read-out against control, counted positive when it falls. For `C=C1C(=O)O[C@@H]2[C@@H]3[C@@H](CC[C@@]3(C)O)C(=C)CC[C@@H]12` [CD-102], the inhibition at 1 mg/kg in data set [2] (Rattus norvegicus, oral, dose 1 mg/kg, read-out: Lesion inhibition rate) worked out at 43%; in data set [3] (Rattus norvegicus, dose 1 mg/kg, read-out: Lesion inhibition rate), 41.6%. In addition, the inhibition at 3 mg/kg in data set [2] (Rattus norvegicus, oral, dose 3 mg/kg, read-out: Lesion inhibition rate) was determined as 70.4%; in data set [3] (Rattus norvegicus, dose 3 mg/kg, read-out: Lesion inhibition rate), 56.1%. Also, the inhibition at 10 mg/kg in data set [2] (Rattus norvegicus, oral, dose 10 mg/kg, read-out: Lesion inhibition rate) worked out at 94.9%; in data set [3] (Rattus norvegicus, dose 10 mg/kg, read-out: Lesion inhibition rate), 77.2%. Also, the “50% effective dose (ED50)” value was 1.31 mg/kg in data set [2] (oral, regression analysis) and 1.82 mg/kg in data set [3] (regression analysis). Besides, the “Chromosomal aberration test results” value is reported as “negative” in data set [1] (+S9, dose 5 μg/kg); “negative” in data set [1] (+S9, dose 20 μg/kg); “negative” in data set [1] (−S9, dose 1.25 μg/kg); “negative” in data set [1] (−S9, dose 5 μg/kg). In addition, the Cytotoxicity result in data set [1] (CHL cell) was “neither cytotoxicity”. Besides, the “Induction of chromosomal aberration” value in data set [1] (CHL cell) is given as “do not induce the chromosomal aberration”.

As for `C=C1C(=O)O[C@@H]2[C@@H]3[C@@H](CC[C@@]3(C)O)[C@](C)(OC)CC[C@@H]12` [CD-103], the “Chromosomal aberration test results” value is “negative” in data set [1] (+S9, dose 2.5 μg/kg); “negative” in data set [1] (+S9, dose 5 μg/kg); “negative” in data set [1] (−S9, dose 0.625 μg/kg); “negative” in data set [1] (−S9, dose 1.25 μg/kg). In data set [1] (CHL cell), the “Induction of chromosomal aberration” value is “do not induce the chromosomal aberration”.

In the case of `CO[C@@]12[C@H](COC(N)=O)C3=C(C(=O)C(C)=C(N)C3=O)N1C[C@@H]1N[C@@H]12` [Mitomycin C, reference compound], the “Chromosomal aberration test results” value in data set [1] (−S9, dose 0.5 μg/kg) is given as “positive”.

Take `CC1=C2C3OC(=O)[C@@H](C)[C@@H]3CC[C@@]2(C)C=CC1=O` (stereo partly shown) [reference compound]: the Lesion inhibition rate result in data set [2] (Table 2, ineffective compounds, dose not given) is “no effect”.

On to `C=C1C(=O)O[C@@H]2/C=C(\C)CC/C=C(\C)C[C@@H](OC(C)=O)C12` (stereo partly shown) [reference compound], for which the “Chromosomal aberration test result” value in data set [1] (setting [4]) and in data set [1] (−S9 (direct method)) was “positive positive” in each case.

Turning to `C=C1C(=O)O[C@@H]2/C=C(\C)CCC(O)C(C)(O)C[C@@H](OC(C)=O)C12` (stereo partly shown) [reference compound], the “Chromosomal aberration test result” value in data set [1] (setting [4]) and in data set [1] (−S9 (direct method)) was “positive positive” throughout.

Regarding `CC(=O)O[C@@H]1/C=C(\C)CCC/C(C)=C/[C@H]2OC(=O)[C@H](CN(C)C)C12` (stereo partly shown) [reference compound], the “Chromosomal aberration test result” value in data set [1] (setting [4]) and in data set [1] (−S9 (direct method)) was “positive positive” throughout.
